Patent publication US20060165821A1, “Composition comprising scutellaria baicalensis and their uses thereof” (priority 2002, published 2006)

Legend:
[1] = mice or rats; 500 mg/kg oral, 3000 mg/kg IM, 1500 mk/kg IV; cited from earlier work
[2] = Paw edema induced by Freund's complete adjuvant in rats; type: in vivo, Wistar rats; conditions: X ± SD, n = 6, oral gavage once per day
Description: The anti-arthritic activity of Scutellaria baicalensis formula was confirmed in animal study. Eight week-old male Wistar rats were received intradermal injections of 0.1 ml Freund's complete adjuvant (FCA, 7.5 mg/ml) to the paw of the right hindfood. At 14 days, paw edema was induced and rats were randomized into three groups (n=6) including control group, Scutellaria baicalensis formula group (30 mg/kg of Scutellaria baicalensis, 10 mg/kg of Glucosamine and 8 mg/kg of Chondroitin) and indomethacin group (12.5 mg/kg) which serves as a positive control. The treatment groups were given Scutellaria baicalensis formula or indomethacin by oral gavage once per day for a duration of 10 days. The diameters of paw were measured at 16, 20 and 24 days.

IL-6 = IL-6 in serum of rats with adjuvant arthritis (ELISA); type: in vivo; conditions: end of experiment, X ± SD, n = 6
Excerpt: (§1) Osteoarthritis is characterized by articular cartilage degradation and hypertrophic joint changes. Pro-inflammatory cytokines (IL-1, IL-6, TNF-α) are considered to play important roles in the initiation and development of osteoarthritis (Inoue et al. British Journal of Pharmacology 136:287-295 (2002)). Prostaglandin (PG) E2 has catabolic effects on the articular cartilage in OA (Futani et al J Immunother 2002 1;25(0):S61-S64). Therefore, we measured IL-6 and PGE2 in rats' blood with adjuvant-induced arthritis treated with Scutellaria baicalensis formula using ELISA assay. At the end of the experiment in Example 4.1, IL-6 in serum and PGE2 in articular fluid were assessed.

PGE2 = PGE2 in articular fluid of rats with adjuvant arthritis (ELISA); type: in vivo; conditions: end of experiment, X ± SD, n = 6
Excerpt: as §1

[3] = following an oral dose; cited from earlier work
SCC-25 cells = test: Previously determined IC50 of celecoxib; type: cell-based; conditions: Homo sapiens, quantity inhibited not stated
Description: Benzo[a]pyrene (BaP), one of the compounds released from smoking, is a prototypical carcinogen. It is a polycyclic aromatic hydrocarbon (PAH) compound and is found in high quantity (20-40 ng) in each cigarette. BaP is metabolized and activated to become the ultimate carcinogenic metabolite [(+)-anti-7b,8a-dihydroxy-9a,10a-epoxy-7,8,9,10-tetrahydorbenzo[a]pyrene], also known as BPDE. […] We examined the counter-stimulatory effect of Scutellaria baicalensis on BaP-induced COX-2 activity. After the treating SCC-25 cells with BaP for 6 hours, the supernatants were removed and the cells were washed with PBS. […] This situation resembles the chemoprevention in the former smokers.

## N[C@H]1C(O)O[C@H](CO)[C@@H](O)[C@@H]1O.O=S(=O)(O)O (some centres unmarked) [glucosamine sulfate]
[1]
  mortality: No mortality

## COc1ccc2c(c1)c(CC(=O)O)c(C)n2C(=O)c1ccc(Cl)cc1 [Indomethacin]
[2]; 16 d
  changes of paw edema: 0.929 ± 0.214
[2]; 20 d
  changes of paw edema: 0.771 ± 0.160
[2]; 24 d
  changes of paw edema: 0.400 ± 0.245
IL-6
  IL-6: 6.0 ± 3.1 pg/mL
PGE2
  PGE2: 6.00 ± 3.1 pg/mL

## Chondroitin sulfate
[3]
  tolerability / signs or symptoms of toxicity: well tolerated

## Cc1ccc(-c2cc(C(F)(F)F)nn2-c2ccc(S(N)(=O)=O)cc2)cc1 [celecoxib]
SCC-25 cells
  IC50: 25 µM
